Key:
[1] = test system: patients with epilepsy, behavioral and nutritional abnormalities; assay: Clinical observations under oral nicotinamide therapy; type: in vivo, human
[2] = test system: subjects suspected to suffer from tryptophan malabsorption; conditions: 20 mg/kg/day in six doses, three subjects; cited from earlier work

In the case of `NC(=O)c1cccnc1` [nicotinamide, pyridine-3-carboxamide], the “indican in plasma and urine” value ([1]; nicotinamide therapy) is reported as “normalization”, the “behavioral, neurological and psychiatric abnormalities” value ([1]; oral nicotinamide) is reported as “Remarkable improvement up to normalization” and the intestinal tryptophan absorption ([1]; oral nicotinamide) is reported as “stimulates intestinal tryptophan absorption”. For the same molecule, the “clinical picture under nicotinamide therapy” value ([1]; patients with epilepsy, behavioral and nutritional abnormalities hardly improved by antiepileptic, antidepressant and other drugs) was “normalized in one or two months” and the “effect on behavioral and psychiatric illnesses” value [2] was “beneficial effect”.

— US10881614B2, “Nicotinamide compositions and the therapeutic use thereof” (APeT Holding B.V., priority 2011, dated 2021)
